Results: US11472808B2, “Substituted pyrrolo[1,2-c]pyrimidines as hepatitis B antiviral agents” (Enanta Pharmaceuticals, Inc., priority 2019, dated 2022)

Columns and labels:
HBV = assay: HepAD38 anti-HBV assay: reduction of viral product accumulation (virion DNA qPCR, HBsAg/HBeAg ELISA); format: cell-based; details: Hepatitis B virus, 120 h; HepAD38 cells; concentration reducing viral product accumulation by 50% relative to no drug controls; harvest five days after compound addition; read-out: HepAD38 EC50
How it was run: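 EC50 values reflect 50% reduction, relative to untreated controls, in virion DNA (qPCR) or HBsAg/HBeAg (ELISA) from lysates or supernatants. Washed HepAD38 cells without tetracycline were exposed to compound for 5 days. In the 8-day variant, medium and compound were renewed on days 2 and 5.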

[1] = Compound toxicity, ATPLite total ATP levels; format: cell-based; details: human, HepG2 cells; concentration reducing total ATP levels by 50% relative to no drug controls; ATPLite three days after compound addition
Experimental: Compound toxicity is evaluated by seeding cells at 15,000 cells/well and treating with compound as described above.

Compound | EC50 (HBV) | CC50 at 3 days [1]
O=S(=O)(N[C@H]1CC2=C(c3ccn(C(F)F)n3)[C@H](c3ccc(F)cc3Cl)N=C(c3nccs3)N2C1)N1CCC(O)(C2CCCC2)CC1 [Example 267] | < 0.1 µM | > 25 µM
O=S(=O)(N[C@H]1CC2=C(c3ccn(C(F)F)n3)[C@H](c3ccc(F)cc3Cl)N=C(c3nccs3)N2C1)N1CCC(O)(c2ncco2)CC1 [Example 261] | < 0.1 µM | > 25 µM
CC1(O)CCN(S(=O)(=O)N[C@H]2CC3=C(c4ccn(C(F)F)n4)[C@H](c4ccc(F)cc4Cl)N=C(c4nccs4)N3C2)C1 (stereo partly drawn) [Example 282] | < 0.1 µM | > 25 µM
O=S1(=O)NCCN1[C@H]1CC2=C(c3ccn(C(F)F)n3)[C@H](c3ccc(F)cc3Cl)N=C(c3nccs3)N2C1 [Example 376] | < 0.1 µM | > 25 µM
O=S(=O)(NCCCO)N[C@H]1CC2=C(c3ccn(C(F)F)n3)[C@H](c3ccc(F)cc3Cl)N=C(c3nccs3)N2C1 [Example 79] | < 0.1 µM | > 25 µM
O=C1NC[C@H](CNC(=O)c2cccc(S(=O)(=O)N[C@H]3CC4=C(c5ccn(C(F)F)n5)[C@H](c5ccc(F)cc5Cl)N=C(c5nccs5)N4C3)c2)O1 [Example 421] | < 0.1 µM | > 25 µM
CC1(O)CCN(S(=O)(=O)N[C@H]2CC3=C(c4ccn(C(F)F)n4)[C@H](c4ccc(F)cc4Cl)N=C(c4nccs4)N3C2)CC1 [Example 256] | < 0.1 µM | > 25 µM
O=S(=O)(N[C@H]1CC2=C(c3ccn(C(F)F)n3)[C@H](c3ccc(F)cc3Cl)N=C(c3nccs3)N2C1)N1CCCC[C@@H]1C(F)(F)F [Example 301] | < 0.1 µM | > 25 µM
CS(=O)(=O)c1cccc(S(=O)(=O)N[C@H]2CC3=C(c4ccn(C(F)F)n4)[C@H](c4ccc(F)cc4Cl)N=C(c4nccs4)N3C2)c1 [Example 336] | < 0.1 µM | > 25 µM
CS(=O)(=O)NC1CCN(S(=O)(=O)N[C@H]2CC3=C(c4ccn(C(F)F)n4)[C@H](c4ccc(F)cc4Cl)N=C(c4nccs4)N3C2)C1 (stereo partly drawn) [Example 290] | < 0.1 µM | > 25 µM
O=S(=O)(N[C@H]1CC2=C(c3ccn(C(F)F)n3)[C@H](c3ccc(F)cc3Cl)N=C(c3nccs3)N2C1)N1CC[C@@H](O)C1 [Example 92] | < 0.1 µM | > 25 µM
N#CCC1(O)CC2=C(c3ccn(C(F)F)n3)[C@H](c3ccc(F)cc3Cl)N=C(c3nccs3)N2C1 (stereo partly drawn) [Example 140] | < 0.1 µM | > 25 µM
O=S(=O)(NCCc1ccccn1)N[C@H]1CC2=C(c3ccn(C(F)F)n3)[C@H](c3ccc(F)cc3Cl)N=C(c3nccs3)N2C1 [Example 309] | < 0.1 µM | > 25 µM
O=S(=O)(N[C@H]1CC2=C(c3ccn(C(F)F)n3)[C@H](c3ccc(F)cc3Cl)N=C(c3nccs3)N2C1)N1C[C@H](F)[C@@H](F)C1 [Example 275] | < 0.1 µM | 10 to 25 µM
CS(=O)(=O)N1CCN(S(=O)(=O)N[C@H]2CC3=C(c4ccn(C(F)F)n4)[C@H](c4ccc(F)cc4Cl)N=C(c4nccs4)N3C2)CC1 [Example 151] | < 0.1 µM | > 25 µM
CS(=O)(=O)c1ccc(S(=O)(=O)N[C@H]2CC3=C(c4ccn(C(F)F)n4)[C@H](c4ccc(F)cc4Cl)N=C(c4nccs4)N3C2)cc1 [Example 323] | < 0.1 µM | 10 to 25 µM
CC(C)[C@H](NS(=O)(=O)N[C@H]1CC2=C(c3ccn(C(F)F)n3)[C@H](c3ccc(F)cc3Cl)N=C(c3nccs3)N2C1)c1ccccn1 [Example 342] | < 0.1 µM | > 25 µM
O=S(=O)(N[C@H]1CC2=C(c3ccn(C(F)F)n3)[C@H](c3ccc(F)cc3Cl)N=C(c3nccs3)N2C1)C1(CCO)CC1 [Example 379] | < 0.1 µM | 10 to 25 µM
O=S(=O)(N[C@H]1CC2=C(c3ccn(C(F)F)n3)[C@H](c3ccc(F)cc3Cl)N=C(c3nccs3)N2C1)c1cccc(-c2cccnc2)n1 [Example 378] | < 0.1 µM | > 25 µM
Cn1ccc(C2(O)CCN(S(=O)(=O)N[C@H]3CC4=C(c5ccn(C(F)F)n5)[C@H](c5ccc(F)cc5Cl)N=C(c5nccs5)N4C3)CC2)n1 [Example 304] | < 0.1 µM | > 25 µM
O=S(=O)(CCl)N[C@H]1CC2=C(c3ccn(C(F)F)n3)[C@H](c3ccc(F)cc3Cl)N=C(c3nccs3)N2C1 [Example 70] | < 0.1 µM | > 25 µM

Compound | EC50 (HBV) | CC50 at 3 days [1]
O=C1NCCN1C1CCN(S(=O)(=O)N[C@H]2CC3=C(c4ccn(C(F)F)n4)[C@H](c4ccc(F)cc4Cl)N=C(c4nccs4)N3C2)CC1 [Example 294] | < 0.1 µM | > 25 µM
CS(=O)(=O)CS(=O)(=O)N[C@H]1CC2=C(c3ccn(C(F)F)n3)[C@H](c3ccc(F)cc3Cl)N=C(c3nccs3)N2C1 [Example 335] | < 0.1 µM | > 25 µM
O=C1OCCN1C1CCN(S(=O)(=O)N[C@H]2CC3=C(c4ccn(C(F)F)n4)[C@H](c4ccc(F)cc4Cl)N=C(c4nccs4)N3C2)CC1 [Example 302] | < 0.1 µM | > 25 µM
O=C1OCCN1S(=O)(=O)N[C@H]1CC2=C(c3ccn(C(F)F)n3)[C@H](c3ccc(F)cc3Cl)N=C(c3nccs3)N2C1 [Example 72] | < 0.1 µM | > 25 µM
O=S(=O)(N[C@H]1CC2=C(c3ccn(C(F)F)n3)[C@H](c3ccc(F)cc3Cl)N=C(c3nccs3)N2C1)N[C@H]1CC[C@H](O)CC1 [Example 155] | < 0.1 µM | > 25 µM
O=C(N[C@H]1CC2=C(c3ccn(C(F)F)n3)[C@H](c3ccc(F)cc3Cl)N=C(c3nccs3)N2C1)c1ccccn1 [Example 214] | < 0.1 µM | 10 to 25 µM
O=S(=O)(N[C@H]1CC2=C(c3ccn(C(F)F)n3)[C@H](c3ccc(F)cc3Cl)N=C(c3nccs3)N2C1)C1(C[C@@H](O)CO)CC1 [Example 424] | < 0.1 µM | > 25 µM
O=S(=O)(N[C@H]1CC2=C(c3ccn(C(F)F)n3)[C@H](c3ccc(F)cc3Cl)N=C(c3nccs3)N2C1)N1CCCC1 [Example 271] | < 0.1 µM | 10 to 25 µM
O=S(=O)(N[C@H]1CC2=C(c3ccn(C(F)F)n3)[C@H](c3ccc(F)cc3Cl)N=C(c3nccs3)N2C1)N1CCC(O)(CO)CC1 [Example 89] | < 0.1 µM | > 25 µM
O=S(=O)(N[C@H]1CC2=C(c3ccn(C(F)F)n3)[C@H](c3ccc(F)cc3Cl)N=C(c3nccs3)N2C1)N[C@H]1C[C@H](O)C1 [Example 157] | < 0.1 µM | > 25 µM
O=S(=O)(N[C@H]1CC2=C(c3ccn(C(F)F)n3)[C@H](c3ccc(F)cc3Cl)N=C(c3nccs3)N2C1)N1CCC(O)(c2ncccn2)CC1 [Example 303] | < 0.1 µM | > 25 µM
O=S(=O)(N[C@H]1CC2=C(c3ccn(C(F)F)n3)[C@H](c3ccc(F)cc3Cl)N=C(c3nccs3)N2C1)N1CC2CC2C1 (stereo partly drawn) [Example 273] | < 0.1 µM | < 10 µM
O=S(=O)(N[C@H]1CC2=C(c3ccn(C(F)F)n3)[C@H](c3ccc(F)cc3Cl)N=C(c3nccs3)N2C1)c1ncc[nH]1 [Example 362] | < 0.1 µM | > 25 µM
O=S(=O)(NC(c1ccccn1)c1ccccn1)N[C@H]1CC2=C(c3ccn(C(F)F)n3)[C@H](c3ccc(F)cc3Cl)N=C(c3nccs3)N2C1 [Example 361] | < 0.1 µM | > 25 µM
O=S(=O)(N[C@H]1CC2=C(c3ccn(C(F)F)n3)[C@H](c3ccc(F)cc3Cl)N=C(c3nccs3)N2C1)N[C@H](c1ccccn1)C1CC1 [Example 353] | < 0.1 µM | > 25 µM
CN(CCO)S(=O)(=O)N[C@H]1CC2=C(c3ccn(C(F)F)n3)[C@H](c3ccc(F)cc3Cl)N=C(c3nccs3)N2C1 [Example 81] | < 0.1 µM | > 25 µM
O=S(=O)(N[C@H]1CC2=C(c3ccn(C(F)F)n3)[C@H](c3ccc(F)cc3Cl)N=C(c3nccs3)N2C1)N1CCC(F)(F)C1 [Example 276] | < 0.1 µM | < 10 µM
O=S(=O)(N[C@H]1CC2=C(c3ccn(C(F)F)n3)[C@H](c3ccc(F)cc3Cl)N=C(c3nccs3)N2C1)c1cccc(F)c1 [Example 386] | < 0.1 µM | 10 to 25 µM
COC(=O)N1CCN(C(=O)N[C@H]2CC3=C(c4ccn(C(F)F)n4)[C@H](c4ccc(F)cc4Cl)N=C(c4nccs4)N3C2)CC1 [Example 221] | 0.1 to 0.4 µM | 
O=C(O)C1CCN(CCS(=O)(=O)N[C@H]2CC3=C(c4ccn(C(F)F)n4)[C@H](c4ccc(F)cc4Cl)N=C(c4nccs4)N3C2)CC1 [Example 59] | 0.1 to 0.4 µM | 
O=C(N[C@H]1CC2=C(c3ccn(C(F)F)n3)[C@H](c3ccc(F)cc3Cl)N=C(c3nccs3)N2C1)O[C@H]1C[C@H](O)C1 [Example 255] | 0.1 to 0.4 µM | 
